Source: patent US20030166583A1, “Dermal cytochrome P450 1A inhibitors and enhancers” (priority 2002, published 2003)
Entries after “also recorded” stand apart in the source; their conditions may differ.

Columns and labels:
CYP1A [1] = experiment: in vitro; details: nude, mouse
Source text: (§1) Nude mice were sacrificed by decapitation.
(§2) The precipitate containing the microsomes was obtained.

liver CYP1A = experiment: Liver microsomal CYP1A enzymatic activity, inhibition or enhancement; details: for enhancing effect on liver CYP1A activity, in words / inhibitory effect on liver CYP1A activity, in words: at certain concentration (1, 10 or 100 μM); for liver CYP1A activity (% of control group): liver microsomes
Procedure: (§3) Nude mice were sacrificed by decapitation. The skin and liver were immediately removed and kept in ice bath or 4° C. […] Connective tissue, blood, and fat were carefully removed from the tissue. Excess water content was removed from the homogenized tissue by tissue papers before the tissue was weighed.
(§4) The suspension of homogenized tissue in potassium chloride solution was transferred into a Teflon pestle-glass homogenizer for homogenization for six (6) times. Then, potassium chloride solution was added into the homogenized suspension to bring the volume to about four (4) times of the homogenized suspension. The diluted suspension was 5 transferred into a centrifuge tube and centrifuged at 4° C., 9000 xg, for twenty (20) minutes. The supernatant containing microsomes from skin or liver tissue and other soluble substance were removed and the volume of the supernatant was brought up to four (4) times of the weight of the tissue by adding potassium chloride solution. The diluted supernatant was transferred into a centrifuge tube and centrifuged at 4° C., 100,000 xg, for one (1) hour (Beckman L8-80M). The precipitate containing the microsomes was obtained. Potassium chloride solution was added into the precipitate to bring the volume up to four (4) times of the weight of the tissue, and the suspension was centrifuged at 4° C., 100,000 xg for one (1) hour, to obtain the washed microsomes, which were stored at −78° C. in 0.1M KH2PO4-K2HPO4 buffer (pH=7.4).
(§5) The enzymatic activity of CYP1A was determined based on the activity of 7-ethoxyresorufin-O-deethylase (i.e., for CYP1A) and 7-methoxyresorufin-O-demethylase (i.e., CYP1A2). […] Except for the blank group, the reaction was triggered by adding 0.54 μM NADPH. In the test tube (16×100 mm), the reaction was carried out for ten (10) minutes at constant temperature (37° C.) with vibration and without light Methanol 2.5 ml was added into the reaction mixture to stop the reaction. Protein precipitate was removed from the reaction mixture by centrifuging the reaction mixture at 180 xg for ten (10) minutes. The supernatant was tested for florescent intensity with 550 nm as the excitation wavelength and 585 nm the emission wavelength. The florescent intensity was compared with 0.01 μM-0.1 μM standard Rhodamine B solution to obtain the reading of the CYP1A enzyme activity.

CYP1A [2] = experiment: as above; details: nude, mouse, liver microsomes, pH 7.8, probe 7-ethoxyresorufin
Procedure: as §3, §4, §5

dermal CYP1A = experiment: Dermal microsomal CYP1A enzymatic activity (7-ethoxyresorufin-O-deethylase), inhibition or enhancement; details: for inhibitory effect on dermal CYP1A activity, in words: at certain concentration (1, 10 or 100 μM); for enhancing effect on dermal CYP1A activity, in words: at certain concentrations (1, 10 or 100 μM); for dermal CYP1A activity (% of control group): skin microsomes, mean of at least 3 repeats
Source text: as §1, §2

[3] = pH 7.8, dermal CYP1A activity (% of control group)
[4] = pH 7.8, inhibition of dermal CYP1A activity

Structure (SMILES)	activity at 10 min, 1 µM (CYP1A [1]; [3]) [%]	activity at 10 min, 10 µM (CYP1A [1]; [3]) [%]	activity at 10 min, 100 µM (CYP1A [1]; [3]) [%]	enhancing effect on liver CYP1A activity, in words (liver CYP1A)	activity at 10 min, 1 µM (CYP1A [2]) [%]	activity at 10 min, 10 µM (CYP1A [2]) [%]	activity at 10 min, 100 µM (CYP1A [2]) [%]	inhibitory effect on dermal CYP1A activity, in words (dermal CYP1A)	dermal CYP1A activity (% of control group) (dermal CYP1A; compound 1 μM) [%]	dermal CYP1A activity (% of control group) (dermal CYP1A; compound 10 μM) [%]	dermal CYP1A activity (% of control group) (dermal CYP1A; compound 100 μM) [%]	liver CYP1A activity (% of control group) (liver CYP1A; compound 1 μM) [%]	liver CYP1A activity (% of control group) (liver CYP1A; compound 10 μM) [%]	liver CYP1A activity (% of control group) (liver CYP1A; compound 100 μM) [%]	also measured
COc1ccc(-c2coc3cc(O)ccc3c2=O)cc1 [Formononetin]	67	109	85.9	enhancing effect; also recorded: most enhancing effect	121	144	145								inhibition at 10 min, 1 µM (CYP1A [1]; [4]): ~33%
O=C(O)c1ccc(O)c(O)c1 [Protocatechuic acid]	138	121	102	enhancing effect	119	123	107								
CC(C)[C@@H](C)/C=C/[C@@H](C)[C@H]1CC[C@H]2C3=CC=C4C[C@@H](O)CC[C@]4(C)[C@H]3CC[C@]12C [Ergosterol]				enhancing effect	103	104	97.7								activity at 10 min, 10 µM (CYP1A [1]; pH 7.8): 57.3%; activity at 10 min, 100 µM (CYP1A [1]; pH 7.8): 52.2%; inhibitory effect on liver CYP1A activity, in words (liver CYP1A): inhibitory effects
O=c1c(-c2ccc(O)cc2)coc2cc(O)ccc12 [Daidzein]	77.5	71.7	77.2		109	112	135								inhibition at 10 min, 10 µM (CYP1A [1]; [4]): ~28%
Oc1cc(O)c2c(c1)O[C@H](c1ccc(O)c(O)c1)[C@H](O)C2 [(−)-Epicatechin]				enhancing effect; also recorded: most enhancing effect				inhibition effects	85.69	121.77	129.82	133.54	139.91	147.44	enhancing effect on dermal CYP1A activity, in words (dermal CYP1A): enhancing effects; also recorded: strongest enhancing effect; enhancement of dermal CYP1A activity (dermal CYP1A; compound 10 μM): 22%; enhancement of dermal CYP1A activity (dermal CYP1A; compound 100 μM): about 30%; enhancement of dermal microsomal CYP1A activity (dermal CYP1A; concentration between about 10 μM and about 100 μM): at least 20%; enhancing effect on liver CYP1A activity (liver CYP1A; compound 1 μM): about 34%
O=C(O)[C@H]1O[C@@H](Oc2cc3oc(-c4ccccc4)cc(=O)c3c(O)c2O)[C@H](O)[C@@H](O)[C@@H]1O [Baicalin]				enhancing effect				inhibition effects	90.14	82.85	75.91	106.19	90.79	106.06	inhibition of dermal CYP1A activity (dermal CYP1A; compound 100 μM): about 24%; inhibitory effect on liver CYP1A activity, in words (liver CYP1A): inhibitory effects
C[C@@H]1O[C@@H](O[C@H]2[C@H](Oc3cc(O)c4c(c3)O[C@H](c3ccc(O)cc3)CC4=O)O[C@H](CO)[C@@H](O)[C@@H]2O)[C@H](O)[C@H](O)[C@H]1O [Narigin]				enhancing effect; also recorded: most enhancing effect				inhibition effects	149.99	103.30	77.31	138.88	119.79	120.55	enhancing effect on dermal CYP1A activity, in words (dermal CYP1A): enhancing effects; also recorded: strongest enhancing effect; enhancement of dermal CYP1A activity (dermal CYP1A; compound 1 μM): about 50%; inhibition of dermal CYP1A activity (dermal CYP1A; compound 100 μM): about 23%; enhancing effect on liver CYP1A activity (liver CYP1A; compound 100 μM): about 21%
O=c1ccc2ccc(O)cc2o1 [Umbelliferone]				enhancing effect	120	119									activity at 10 min, 1 µM (CYP1A [1]; pH 7.8): 72.5%; activity at 10 min, 10 µM (CYP1A [1]; pH 7.8): 52.7%; activity at 10 min, 100 µM (CYP1A [1]; pH 7.8): 75.8%; inhibition at 10 min, 10 µM (CYP1A [1]; pH 7.8): ~47%
